# Measurements reported in patent US11389473B2, “Magnesium-containing oxytocin formulations and methods of use” (Tonix Pharmaceuticals Holding Corp., priority 2015, dated 2022).
# Tests used:
# [1] = system: rat model of facial thermal nociception; test: Rat model of facial thermal nociception (cheek withdrawal latency to radiant heat); assay type: in vivo; details: for analgesic effect (elevation in latency to withdrawal): 15-300 min
# Description: The heat from a projector lamp was focused on the pre-shaved cheek of rats and the intensity was varied to obtain a withdrawal response with a latency of between 6.5 and 8.5 seconds. The intensity applied to achieve such latencies was recorded for each animal. Once stable/acceptable baseline values were obtained, the average latencies for each rat were calculated. After baseline cheek withdrawal latencies were determined for all rats, each rat received a single nasal administration of either normal saline, 15% magnesium chloride in water, or 1% magnesium lactate in water according to the method developed by Frey (Thorne, et al. Neuroscience., 127: 481-496 (2004)). Briefly, rats (under urethane anesthesia) were placed in a supine position with a rolled pad (2×2 gauze) inserted under the dorsal neck to extend the head back toward the supporting surface. The upper surface of the neck was kept horizontal throughout the dosing procedure to maintain the drug solution in the nasal cavity and minimize dripping down the nasopharynx. A 6 μL drop of the respective drug solution was delivered off the tip of a small pipette and presented to the nares on the left side of the rat while occluding the opposite nares. One drop was administered every 2 minutes, alternating between each nares (thus amounting to a four minute interval between doses to the same nares). Each nostril received 4 drops, totaling a combined volume of 48 μL (8 drops of 6 μL each). Drug solutions were coded in order to keep the experimenter blinded as to the substances delivered. Left cheek withdrawal latencies in response to radiant heat stimulation were then measured over the next 3 hours. Withdrawal latencies were measured prior to nasal administration and at 1, 2, and 3 hours post-treatment.
# (§1) One of 4 concentrations of dibasic magnesium citrate (1:1 Mg/citrate) was applied to rats and the effects of these applications on responses to noxious thermal stimulation of the face were assessed as described above. Each rat received a single nasal administration of 3, 6, 10, or 12% magnesium citrate in water (6 rats/group) according to the method described above. Left cheek withdrawal latencies in response to radiant heat stimulation were then measured over the following 300 minutes. Withdrawal latencies were measured prior to nasal administration and at 15, 30, 45, 60, 120, 180, 240, and 300 min post-treatment.
# as §1, with “3 doses” for “4 concentrations”, “oxytocin in buffered saline” for “dibasic magnesium citrate (1:1 Mg/citrate)”, “1, 4,” for “3, 6, 10,”, “8 μg oxytocin” for “12% magnesium citrate”, “aqueous solution” for “water”
# Aqueous solutions containing a combination of magnesium citrate at one of 3 concentrations with oxytocin at one of 3 doses were applied nasally in rats and changes in withdrawal response latency were measured as above. Each rat received a single nasal administration of 1, 4, or 8 μg of oxytocin in aqueous solution containing 3, 6, or 12% magnesium citrate according to the method described above. Left cheek withdrawal latencies in response to radiant heat stimulation were then measured over the following 300 minutes. Withdrawal latencies were measured prior to nasal administration and at 15, 30, 45, 60, 120, 180, 240, and 300 min post-treatment.
# Difference scores were generated for each time point after dosing by comparing the respective withdrawal response latency to pre-dosing (baseline) values.
# [2] = system: patient with chronic tension-type headache; test: Patient with chronic tension-type headache, neck and shoulder pain taking oxytocin sprays; assay type: in vivo, human
# Source text: A patient with chronic tension-type headache reported having intense pain in their head, neck and shoulders. The patient took 4 sprays of 7.5 IU/spray oxytocin for a dose of 30 units, at which point their headache pain was gone, but the neck and shoulder pain remained. […] Thus, a higher dose was necessary to affect neck and shoulder pain than was necessary to inhibit head pain in the same patient.
# [3] = system: rat paw inflammation model; test: Rat paw inflammation model (complete Freund's adjuvant, forepaw force withdrawal threshold); assay type: in vivo; details: nasal
# Description: The analgesic effect of nasally administered oxytocin on cervical nerve-associated inflammatory pain was assessed in a rat paw inflammation model (Martin et al., Pain 1999, 82:199-205). Oxytocin was nasally administered at one of three doses (193, 385 or 768 micrograms in 48 microliters) and force withdrawal thresholds in grams were determined following mechanical stimulation of the inflamed area (forepaw), at regular intervals over the next three hours, and compared against those of vehicle (phosphate buffered saline) treated rats. Injection of complete Freund's adjuvant into the left forepaw of rats produced a robust inflammation of that paw as well as a substantial decrease in the force necessary to elicit a withdrawal response (mechanical allodynia).
# [4] = 1% in water, single nasal administration
# [5] = 4 sprays of 7.5 IU/spray, dose of 30 units
molecule,measurement,setting,value
CC(O)C(=O)[O-].CC(O)C(=O)[O-].[Mg+2] (centres unmarked) [magnesium lactate],analgesic effect,[1]; [4],mild analgesic effect
same,withdrawal latencies at the 2 and 3 hour time points,[1]; [4],still substantially elevated
same,rise in withdrawal response latency,"[1]; 1% in water, single nasal administration, 48 μL",approximately 1.5 s
magnesium citrate,analgesic effect (elevation in latency to withdrawal),"[1]; 3, 6, 10 or 12% in water, single nasal administration",clear dose-dependent analgesic effect
[Cl-].[Cl-].[Mg+2] [magnesium chloride],analgesia at 2 and 3 hours after dosing,"[1]; 15% in water, single nasal administration",analgesia continuing
same,analgesic effect compared to nasal saline treated rats,"[1]; 15% in water, single nasal administration, 1 hour",strong analgesic effect
"CC[C@H](C)[C@@H]1NC(=O)[C@H](Cc2ccc(O)cc2)NC(=O)[C@@H](N)CSSC[C@@H](C(=O)N2CCC[C@H]2C(=O)N[C@@H](CC(C)C)C(=O)NCC(N)=O)NC(=O)[C@H](CC(N)=O)NC(=O)[C@H](CCC(N)=O)NC1=O [oxytocin, Cys-Tyr-Ile-Gln-Asn-Cys-Pro-Leu-Gly]",withdrawal latency,[1]; 1 μg nasally applied,no increase
same,analgesic effect (elevation in latency to withdrawal),"[1]; 1, 4 or 8 μg in aqueous solution, single nasal administration",clear dose-dependent analgesic effect
same,latency to withdrawal in response to noxious cheek heating,[1]; 4 and 8 μg nasally applied,robust increase in latency to withdrawal
same,headache pain,[2]; [5],gone
same,neck and shoulder pain,[2]; [5],remained
same,neck and shoulder pain,"[2]; additional 8-10 sprays, or a total of 60-75 IU",receded and ceased
same,effect on mechanical allodynia resulting from inflammation,"[3]; higher 2 doses, 385 or 768 micrograms in 48 microliters",statistically significant partial reversal of the mechanical allodynia
same,"effect on pain thresholds (force withdrawal threshold, inflamed forepaw)","[3]; lowest dose, 193 micrograms in 48 microliters",ineffective
